Experiment [1] concerns Human immunodeficiency virus 1. In words: Antiviral activity against multidrug-resistant HIV1 isolate MM infected in PHA-stimulated human PBMC assessed as inhibition of p24 […] protein production. Format: functional, organism-based. The following applies: Human immunodeficiency virus 1, isolate MM.
For experiment [2], the system named is Human immunodeficiency virus 1. In words: Antiviral activity against multidrug-resistant HIV1 isolate C infected in PHA-stimulated human PBMC assessed as inhibition of p24 […] protein production. The experiment is classed as functional, organism-based. The following applies: Human immunodeficiency virus 1, isolate C.
Experiment [3] concerns Human immunodeficiency virus 1. Put plainly: Antiviral activity against multidrug-resistant HIV1 isolate B infected in PHA-stimulated human PBMC assessed as inhibition of p24 […] protein production. The experiment is classed as functional, organism-based. The following applies: Human immunodeficiency virus 1, isolate B.
Experiment [4] relates to Human immunodeficiency virus 1. Put plainly: Antiviral activity against wild type HIV1 isolate ERS104pre infected in PHA-stimulated human PBMC assessed as inhibition of p24 […] protein production. Format: functional, organism-based. Particulars: Human immunodeficiency virus 1, isolate ERS104pre.
Experiment [5] relates to Human immunodeficiency virus 1. Put plainly: Antiviral activity against multidrug-resistant HIV1 isolate TM infected in PHA-stimulated human PBMC assessed as inhibition of p24 […] protein production. The following applies: Human immunodeficiency virus 1, isolate TM. The experiment is classed as functional, organism-based.
For experiment [6], the system named is Human immunodeficiency virus 1. Put plainly: Antiviral activity against multidrug-resistant HIV1 isolate G infected in PHA-stimulated human PBMC assessed as inhibition of p24 […] protein production. The following applies: Human immunodeficiency virus 1, isolate G. The experiment is classed as functional, organism-based.
Experiment [7] has as its system Human immunodeficiency virus 1. Put plainly: Antiviral activity against multidrug-resistant HIV1 isolate JSL infected in PHA-stimulated human PBMC assessed as inhibition of p24 […] protein production. Format: functional, organism-based. Particulars: Human immunodeficiency virus 1, isolate JSL.
Experiment [8] concerns Human immunodeficiency virus 1. Put plainly: Antiviral activity against HIV1 LAI infected in human MT2 cells by MTT assay. The experiment is classed as functional, organism-based. Particulars: Human immunodeficiency virus 1, M:B_Lai. In general terms: Tetrazolium assays rely on reduction of a dye to a coloured formazan, in cell work by metabolically active cells.
Experiment [9] relates to Human immunodeficiency virus 1. In words: Selectivity ratio of IC50 for multidrug-resistant HIV1 isolate TM to IC50 for wild type HIV1 isolate ERS104pre. The experiment is classed as functional.
Experiment [10] has as its system Human immunodeficiency virus 1. In words: Selectivity ratio of IC50 for multidrug-resistant HIV1 isolate B to IC50 for wild type HIV1 isolate ERS104pre. Format: functional.
The test system of experiment [11] is Human immunodeficiency virus 1. Put plainly: Selectivity ratio of IC50 for multidrug-resistant HIV1 isolate JSL to IC50 for wild type HIV1 isolate ERS104pre. Format: functional.
In experiment [12] the test system is Human immunodeficiency virus 1. Put plainly: Selectivity ratio of IC50 for multidrug-resistant HIV1 isolate C to IC50 for wild type HIV1 isolate ERS104pre. The experiment is classed as functional.
For experiment [13], the system named is Human immunodeficiency virus 1. Put plainly: Selectivity ratio of IC50 for multidrug-resistant HIV1 isolate MM to IC50 for wild type HIV1 isolate ERS104pre. Format: functional.
Experiment [14] deals with Human immunodeficiency virus 1. Put plainly: Selectivity ratio of IC50 for multidrug-resistant HIV1 isolate G to IC50 for wild type HIV1 isolate ERS104pre. Format: functional.
Experiment [15] addresses Protease (Human immunodeficiency virus 1, UniProt Q9YQ12). In words: Inhibition of HIV1 protease.

Here are results for 34 compounds from ChEMBL document CHEMBL1156053, “Design, synthesis, protein-ligand X-ray structure, and biological evaluation of a series of novel macrocyclic human immunodeficiency virus-1 protease inhibitors to combat drug resistance” (J Med Chem, 2009).

Chain of Protease (Q9YQ12 whole entry): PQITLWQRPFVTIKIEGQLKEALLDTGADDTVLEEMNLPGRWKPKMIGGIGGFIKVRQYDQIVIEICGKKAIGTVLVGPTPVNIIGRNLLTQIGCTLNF

Consider `CC(C)(C)NC(=O)[C@@H]1C[C@@H]2CCCC[C@@H]2CN1C[C@@H](O)[C@H](Cc1ccccc1)NC(=O)[C@H](CC(N)=O)NC(=O)c1ccc2ccccc2n1`, for which the IC50 came to 190 nM in experiment [1]; 32 nM in experiment [2]; 270 nM in experiment [3]; 8 nM in [4]; 260 nM in experiment [5]; 30 nM in [6]. Besides, the IC50 in [7] amounted to 300 nM.
Turning to `CC(C)CN(C[C@@H](O)[C@H](Cc1ccccc1)NC(=O)O[C@H]1CCOC1)S(=O)(=O)c1ccc(N)cc1`, the IC50 in [1] is 210 nM; in experiment [2], 370 nM; in [3], above 1000 nM; in experiment [4], 30 nM; in experiment [5], 320 nM; in experiment [6], 430 nM. Besides, the IC50 in experiment [7] is 620 nM.
As to `COc1ccc(S(=O)(=O)N(CC(C)C)C[C@@H](O)[C@H](Cc2ccccc2)NC(=O)O[C@H]2CO[C@H]3OCC[C@H]32)cc1`, in experiment [8], 1.2 nM corresponded to half-maximal inhibition (IC50).
Regarding `CC(C)(C)NC(=O)[C@@H]1CN(Cc2cccnc2)CCN1C[C@@H](O)C[C@@H](Cc1ccccc1)C(=O)N[C@H]1c2ccccc2C[C@H]1O.O`, the IC50 was above 1000 nM in experiment [1]; above 1000 nM in experiment [2]; above 1000 nM in [3]; 43 nM in [4]; above 1000 nM in experiment [5]; 340 nM in [6]. The IC50 in experiment [7] is above 1000 nM. The “Ratio IC50” value in [9] is listed as above 23; in experiment [10], above 23; in [11] it was above 23; in [12], above 23; in experiment [13], above 23; in [14], 5.
In [15], `C=CCCCOc1cc(OC)ccc1S(=O)(=O)N(CC=C)C[C@@H](O)[C@H](Cc1ccccc1)NC(=O)O[C@H]1CO[C@H]2OCC[C@H]21` gave a Ki of 1.02 nM. Also, 290 nM corresponded to half-maximal inhibition in experiment [8] (IC50).
In experiment [15], `COc1ccc2c(c1)OCCCCCCCN(C[C@@H](O)[C@H](Cc1ccccc1)NC(=O)O[C@H]1CO[C@H]3OCC[C@H]31)S2(=O)=O` yielded a Ki of 0.017 nM. Besides, the IC50 in experiment [8] stood at 14 nM.
The matching figures for `COc1ccc2c(c1)OCCCCCN(C[C@@H](O)[C@H](Cc1ccccc1)NC(=O)O[C@H]1CO[C@H]3OCC[C@H]31)S2(=O)=O`: 0.09 nM and 5.5 nM.
As to `COc1ccc2c(c1)OCCCCCCCC(C)(C)CN(C[C@@H](O)[C@H](Cc1ccccc1)NC(=O)O[C@H]1CO[C@H]3OCC[C@H]31)S2(=O)=O`, affinity in experiment [15] was put at a Ki of 6.8 nM. In addition, in experiment [8], the IC50 is above 1000 nM.
Compound `C=CCCCCN(C[C@@H](O)[C@H](Cc1ccccc1)NC(=O)O[C@H]1CO[C@H]2OCC[C@H]21)S(=O)(=O)c1ccc(OC)cc1OCCCC=C` returned a Ki in experiment [15] of 11.5 nM. In experiment [8], the IC50 was above 1000 nM.
`C=CCCCCN(C[C@@H](O)[C@H](Cc1ccccc1)NC(=O)O[C@H]1CO[C@H]2OCC[C@H]21)S(=O)(=O)c1ccc(OC)cc1OCCC=C` showed a Ki in experiment [15] of 6.9 nM.
With `COc1ccc2c(c1)OCCCCCCCCCN(C[C@@H](O)[C@H](Cc1ccccc1)NC(=O)O[C@H]1CO[C@H]3OCC[C@H]31)S2(=O)=O`, the Ki in experiment [15] was found to be 0.67 nM. The compound further had an IC50 in [8] of 49 nM.
For `COc1ccc2c(c1)OC/C=C\CN(C[C@@H](O)[C@H](Cc1ccccc1)NC(=O)O[C@H]1CO[C@H]3OCC[C@H]31)S2(=O)=O`, the Ki in experiment [15] was 2.4 nM.
The compound `C=CCCCCOc1cc(OC)ccc1S(=O)(=O)N(CC=C)C[C@@H](O)[C@H](Cc1ccccc1)NC(=O)O[C@H]1CO[C@H]2OCC[C@H]21` showed a Ki in experiment [15] of 1.7 nM. Also, the IC50 in experiment [8] turned out to be 270 nM.
In the case of `COc1ccc2c(c1)OCCCCCCCCN(C[C@@H](O)[C@H](Cc1ccccc1)NC(=O)O[C@H]1CO[C@H]3OCC[C@H]31)S2(=O)=O`, the affinity in experiment [15], expressed as Ki, was 0.47 nM. For the same compound, the IC50 in experiment [8] came to 22 nM.
Regarding `COc1ccc2c(c1)OCCCCCCN(C[C@@H](O)[C@H](Cc1ccccc1)NC(=O)O[C@H]1CO[C@H]3OCC[C@H]31)S2(=O)=O`, the affinity in experiment [15] corresponds to a Ki of 0.15 nM. In addition, in experiment [8], the IC50 is 95 nM.
The matching figures for `C=CCCCCOc1cc(OC)ccc1S(=O)(=O)N(CC(C)CC=C)C[C@@H](O)[C@H](Cc1ccccc1)NC(=O)O[C@H]1CO[C@H]2OCC[C@H]21` (stereo partly drawn): 15 nM and 380 nM.
For `C=CCCCCOc1cc(OC)ccc1S(=O)(=O)N(C[C@@H](C)CC=C)C[C@@H](O)[C@H](Cc1ccccc1)NC(=O)O[C@H]1CO[C@H]2OCC[C@H]21` the same measures were 58 nM and above 1000 nM.
In the case of `COc1ccc2c(c1)OC/C=C\CCCCN(C[C@@H](O)[C@H](Cc1ccccc1)NC(=O)O[C@H]1CO[C@H]3OCC[C@H]31)S2(=O)=O`, the affinity in [15], expressed as Ki, was 0.058 nM. In [8], this compound showed an IC50 of 14 nM.
As to `COc1ccc2c(c1)OCCCC/C=C\CN(C[C@@H](O)[C@H](Cc1ccccc1)NC(=O)O[C@H]1CO[C@H]3OCC[C@H]31)S2(=O)=O`, in experiment [15], the Ki is 0.08 nM. For the same compound, in experiment [8], the IC50 was 23 nM.
For `COc1ccc2c(c1)OCCC/C=C\CN(C[C@@H](O)[C@H](Cc1ccccc1)NC(=O)O[C@H]1CO[C@H]3OCC[C@H]31)S2(=O)=O` the same measures were 0.077 nM and 20 nM.
The matching figures for `COc1ccc2c(c1)OCC/C=C\CN(C[C@@H](O)[C@H](Cc1ccccc1)NC(=O)O[C@H]1CO[C@H]3OCC[C@H]31)S2(=O)=O`: 0.051 nM and 15 nM.
The matching figures for `C=CCCCCOc1cc(OC)ccc1S(=O)(=O)N(C[C@@H](O)[C@H](Cc1ccccc1)NC(=O)O[C@H]1CO[C@H]2OCC[C@H]21)CC(C)(C)CC=C`: 82 nM and above 1000 nM.
`COc1ccc2c(c1)OCCC/C=C/CCC(C)(C)CN(C[C@@H](O)[C@H](Cc1ccccc1)NC(=O)O[C@H]1CO[C@H]3OCC[C@H]31)S2(=O)=O` showed a Ki in experiment [15] of 6.9 nM. In experiment [8], this compound returned an IC50 above 1000 nM.
The matching figures for `C=CCCCCOc1cc(OC)ccc1S(=O)(=O)N(CCCCC=C)C[C@@H](O)[C@H](Cc1ccccc1)NC(=O)O[C@H]1CO[C@H]2OCC[C@H]21`: 16.5 nM and above 1000 nM.
With `C=CCCCCN(C[C@@H](O)[C@H](Cc1ccccc1)NC(=O)O[C@H]1CO[C@H]2OCC[C@H]21)S(=O)(=O)c1ccc(OC)cc1OCC=C`, affinity in experiment [15] was put at a Ki of 10 nM.
Still for that read-out and setting: the result for `C=CCCOc1cc(OC)ccc1S(=O)(=O)N(CC=C)C[C@@H](O)[C@H](Cc1ccccc1)NC(=O)O[C@H]1CO[C@H]2OCC[C@H]21` reads 0.63 nM.
Still for that read-out and setting: the same measure for `C=CCOc1cc(OC)ccc1S(=O)(=O)N(CC=C)C[C@@H](O)[C@H](Cc1ccccc1)NC(=O)O[C@H]1CO[C@H]2OCC[C@H]21`: 0.1 nM.
As to `COc1ccc2c(c1)OCCC/C=C\CC[C@@H](C)CN(C[C@@H](O)[C@H](Cc1ccccc1)NC(=O)O[C@H]1CO[C@H]3OCC[C@H]31)S2(=O)=O`, the Ki in experiment [15] was found to be 6 nM. In experiment [8], this compound had an IC50 of 200 nM.
In [15], `COc1ccc2c(c1)OCCC/C=C/CC[C@@H](C)CN(C[C@@H](O)[C@H](Cc1ccccc1)NC(=O)O[C@H]1CO[C@H]3OCC[C@H]31)S2(=O)=O` gave a Ki of 2.8 nM. In experiment [8], this compound registered an IC50 of 6.3 nM.
With `COc1ccc2c(c1)OCCCCCCC[C@@H](C)CN(C[C@@H](O)[C@H](Cc1ccccc1)NC(=O)O[C@H]1CO[C@H]3OCC[C@H]31)S2(=O)=O`, the Ki in [15] was found to be 3.7 nM. In addition, in [8], the IC50 is 650 nM.
The matching figures for `COc1ccc2c(c1)OCCC/C=C\CC[C@H](C)CN(C[C@@H](O)[C@H](Cc1ccccc1)NC(=O)O[C@H]1CO[C@H]3OCC[C@H]31)S2(=O)=O`: 0.31 nM and 9 nM.
For `COc1ccc2c(c1)OCCC/C=C/CC[C@H](C)CN(C[C@@H](O)[C@H](Cc1ccccc1)NC(=O)O[C@H]1CO[C@H]3OCC[C@H]31)S2(=O)=O` the same measures were 0.15 nM and 52 nM.
For `COc1ccc2c(c1)OCCCCCCCCCCN(C[C@@H](O)[C@H](Cc1ccccc1)NC(=O)O[C@H]1CO[C@H]3OCC[C@H]31)S2(=O)=O` the same measures were 0.82 nM and 318 nM.
As for `COc1ccc2c(c1)OCCCCCCC[C@H](C)CN(C[C@@H](O)[C@H](Cc1ccccc1)NC(=O)O[C@H]1CO[C@H]3OCC[C@H]31)S2(=O)=O`, the Ki in [15] turned out to be 0.07 nM. Further, the IC50 in experiment [8] came out at 170 nM.

By IC50 is commonly meant the concentration that inhibits the measured activity by half. In general, Ki refers to a dissociation constant, usually derived from enzyme kinetics or from competition with a known ligand. High values mean weaker binding, low ones tighter binding.
